Columns and labels:
[1] = Comparison of relative fluorescence quantum yield (absorption and fluorescence spectra of dye solutions); format: physicochemical; conditions: for Absorption maximum (nm) / Fluorescence maximum (nm): ethanol solution of dye; for Fluorescence maximum (nm) / Relative fluorescence quantum yield: absorbance 0.1 at 620 nm; for Fluorescence maximum (nm): spectrum measured at 620 nm; for Relative fluorescence quantum yield: ethanol solution, area of fluorescence spectrum relative to Crystal Violet (Φf=0.54)
Description: Measurement and calculation of relative quantum yield were performed according to the method described in Journal of Chemical Society, Faraday Trans., 92, 4917-4925 (1996). The structures of the conventional cyanine dye used as comparative dyes are shown below.
(2) Fluorescence spectrum was measured at an […] wavelength of 620 nm.
(3) Area value of fluorescence spectrum was calculated.
(4) Relative value was calculated based on the area value of Crystal Violet of which absolute fluorescence quantum yield was known (Φf=0.54).

[2] = known value of the standard; cited from earlier work

SMILES: CC[N+]1=C(/C=C/C=C/C=C2/N(CCCCCC(=O)O)c3ccc(S(=O)(=O)[O-])cc3C2(C)C)C(C)(C)c2cc(S(=O)(=O)[O-])ccc21.[K+] [compound 2, reference compound]
- Absorption maximum (nm) [1]: 645 nm
- Fluorescence maximum (nm) [1]: 664 nm
- Relative fluorescence quantum yield [1]: 0.27

SMILES: CC1(C)C2=CC(C#Cc3cccc(N(CCCS(=O)(=O)[O-])S(C)(=O)=O)c3)=CN(CCCCCC(=O)O)C2=N/C1=C\C=C\C1=Nc2c(cc(C#Cc3cccc(N(CCCS(=O)(=O)[O-])S(C)(=O)=O)c3)c[n+]2CCCS(=O)(=O)[O-])C1(C)C.[K+].[K+] [Compound I-12]
- Absorption maximum (nm) [1]: 650 nm
- Fluorescence maximum (nm) [1]: 671 nm
- Relative fluorescence quantum yield [1]: 0.62

SMILES: CN(C)c1ccc(C(=C2C=CC(=[N+](C)C)C=C2)c2ccc(N(C)C)cc2)cc1 [Crystal Violet]
- absolute fluorescence quantum yield (Φf) [2]: 0.54

SMILES: CC(CCN1C=C(C#Cc2ccc(N(CCCS(=O)(=O)[O-])S(C)(=O)=O)cc2)C=C2C1=N/C(=C\C=C\C1=Nc3c(cc(C#Cc4ccc(N(CCCCCC(=O)O)S(C)(=O)=O)cc4)c[n+]3CCC(C)S(=O)(=O)[O-])C1(C)C)C2(C)C)S(=O)(=O)[O-].[K+].[K+] (stereo not shown) [Compound I-13]
- Absorption maximum (nm) [1]: 651 nm
- Fluorescence maximum (nm) [1]: 672 nm
- Relative fluorescence quantum yield [1]: 0.63

SMILES: CC(CC[n+]1cc(C#Cc2ccc(N(CCCS(=O)(=O)[O-])S(C)(=O)=O)cc2)cc2c1N=C(/C=C/C=C1\N=C3C(=CC(C#Cc4ccc(N(CCCS(=O)(=O)[O-])S(C)(=O)=O)cc4)=CN3CCCCCC(=O)O)C1(C)C)C2(C)C)S(=O)(=O)[O-].[K+].[K+] (stereo not shown) [Compound I-11]
- Absorption maximum (nm) [1]: 651 nm
- Fluorescence maximum (nm) [1]: 672 nm
- Relative fluorescence quantum yield [1]: 0.63

Reference: US6794509B1, “Compounds for fluorescence labeling” (Fuji Photo Film Co., Ltd., priority 1999, dated 2004)
